# Data taken from ChEMBL document CHEMBL1201862, “PubChem BioAssay data set” (2004).
# The source made the active and inactive calls.
# Assays:
# [1] = cytotoxicity in HPDE-C7 cells, cell-based, fluorescence, HTS (AID 430); format: functional; conditions: Homo sapiens
# [2] = cytotoxicity in KRAS-transformed pancreatic duct cells, primary screen, cell-based, fluorescence, HTS (AID 431); format: functional; conditions: Homo sapiens;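 also: cell line used: HPDE-C7K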
# [3] = growth suppression of beta-catenin-knockout colon cells, dose response, cell-based, HCT116, human colon tumor (AID 1045); format: functional;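 also: HCT116 colon tumor cells with beta catenin knocked out; cells exposed to compound for 60 hours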
# Nonstructural protein 1 = Nonstructural protein 1 (Influenza A virus, UniProt Q194T2); format: functional, Influenza A virus (A/California/07/2009(H1N1))
# [4] = target: T1, Apoptotic protease-activating factor 1 (Homo sapiens, UniProt O14727); format: functional
# T1 sequence (O14727 whole entry): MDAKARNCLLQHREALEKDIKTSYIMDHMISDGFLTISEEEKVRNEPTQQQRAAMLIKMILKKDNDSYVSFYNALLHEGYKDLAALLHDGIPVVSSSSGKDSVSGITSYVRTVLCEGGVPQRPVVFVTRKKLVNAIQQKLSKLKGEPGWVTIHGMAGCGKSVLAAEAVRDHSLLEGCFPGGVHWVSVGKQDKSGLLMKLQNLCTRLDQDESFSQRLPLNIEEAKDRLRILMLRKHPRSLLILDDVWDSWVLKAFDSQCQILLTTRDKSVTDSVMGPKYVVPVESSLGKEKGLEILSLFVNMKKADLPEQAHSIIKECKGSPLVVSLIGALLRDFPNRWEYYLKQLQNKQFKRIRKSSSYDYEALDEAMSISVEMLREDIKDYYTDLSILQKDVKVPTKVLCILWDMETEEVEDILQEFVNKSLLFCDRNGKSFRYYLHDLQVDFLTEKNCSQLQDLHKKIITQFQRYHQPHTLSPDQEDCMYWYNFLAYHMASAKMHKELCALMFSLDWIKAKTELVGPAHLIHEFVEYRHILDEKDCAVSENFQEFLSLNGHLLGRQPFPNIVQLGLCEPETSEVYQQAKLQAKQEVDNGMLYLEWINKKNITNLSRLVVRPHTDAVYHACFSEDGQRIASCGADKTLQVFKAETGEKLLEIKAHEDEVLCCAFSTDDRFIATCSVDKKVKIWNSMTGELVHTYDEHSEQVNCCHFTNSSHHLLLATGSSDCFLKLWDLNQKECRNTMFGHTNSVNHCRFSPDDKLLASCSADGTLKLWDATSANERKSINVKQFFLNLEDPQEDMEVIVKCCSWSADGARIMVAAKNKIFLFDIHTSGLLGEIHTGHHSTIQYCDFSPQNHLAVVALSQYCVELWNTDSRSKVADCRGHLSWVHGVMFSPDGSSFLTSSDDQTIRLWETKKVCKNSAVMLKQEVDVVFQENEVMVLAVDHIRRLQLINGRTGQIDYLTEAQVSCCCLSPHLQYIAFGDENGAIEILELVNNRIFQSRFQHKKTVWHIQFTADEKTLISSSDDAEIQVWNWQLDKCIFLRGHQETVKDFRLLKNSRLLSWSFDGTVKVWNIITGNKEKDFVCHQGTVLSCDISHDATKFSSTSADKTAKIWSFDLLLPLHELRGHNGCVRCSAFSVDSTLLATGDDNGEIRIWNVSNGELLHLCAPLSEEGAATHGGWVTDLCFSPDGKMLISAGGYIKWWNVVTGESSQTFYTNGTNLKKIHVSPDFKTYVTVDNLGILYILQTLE
# [5] = target: RAC-gamma serine/threonine-protein kinase (Homo sapiens, UniProt Q9Y243); format: functional
# [6] = target: 5'-AMP-activated protein kinase catalytic subunit alpha-1 (Homo sapiens, UniProt Q13131); format: functional
# [7] = target: Protein kinase C delta type (Homo sapiens, UniProt Q05655); format: functional
# [8] = target: Serine/threonine-protein kinase PLK4 (Homo sapiens, UniProt O00444); format: functional;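 also: PLK4 measured as one member of a kinome-wide kinase profiling panel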
# [9] = target: Tyrosine-protein kinase Srms (Homo sapiens, UniProt Q9H3Y6); format: functional;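 also: SRMS measured as one member of a kinome-wide kinase profiling panel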
# [10] = target: Tyrosine-protein kinase ABL1 (Homo sapiens, UniProt P00519); format: functional
# [11] = target: Cyclin-dependent kinase 5 (Homo sapiens, UniProt Q00535); format: functional;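 also: CDK5 measured as one member of a kinase profiling panel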
# [12] = target: 3-phosphoinositide-dependent protein kinase 1 (Homo sapiens, UniProt O15530); format: functional;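 also: value comes from the Navigating the Kinome panel, PDPK1 member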
# [13] = target: Serine/threonine-protein kinase Nek2 (Homo sapiens, UniProt P51955); format: functional
# [14] = target: Cyclin-dependent kinase 8 (Homo sapiens, UniProt P49336); assay: Navigating the Kinome. Panel member name: CDK8; format: functional
# [15] = target: cAMP-dependent protein kinase catalytic subunit alpha (Homo sapiens, UniProt P17612); format: functional
# [16] = target: Lymphokine-activated killer T-cell-originated protein kinase (Homo sapiens, UniProt Q96KB5); format: functional;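 also: value comes from a kinase panel screen in which TOPK was one of the panel members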
# [17] = target: Serine/threonine-protein kinase MRCK alpha (Homo sapiens, UniProt Q5VT25); format: functional
# [18] = target: Macrophage-stimulating protein receptor (Homo sapiens, UniProt Q04912); assay: Navigating the Kinome. Panel member name: MST1R; format: functional
# Chain of Nonstructural protein 1 (Q194T2 whole entry): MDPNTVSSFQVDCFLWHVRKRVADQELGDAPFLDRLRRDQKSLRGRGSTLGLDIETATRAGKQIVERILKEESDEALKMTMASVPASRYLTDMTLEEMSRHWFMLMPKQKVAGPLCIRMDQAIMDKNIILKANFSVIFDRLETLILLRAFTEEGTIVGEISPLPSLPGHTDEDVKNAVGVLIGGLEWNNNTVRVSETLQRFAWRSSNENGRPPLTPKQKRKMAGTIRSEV
# Chain of Tyrosine-protein kinase ABL1 (P00519 whole entry): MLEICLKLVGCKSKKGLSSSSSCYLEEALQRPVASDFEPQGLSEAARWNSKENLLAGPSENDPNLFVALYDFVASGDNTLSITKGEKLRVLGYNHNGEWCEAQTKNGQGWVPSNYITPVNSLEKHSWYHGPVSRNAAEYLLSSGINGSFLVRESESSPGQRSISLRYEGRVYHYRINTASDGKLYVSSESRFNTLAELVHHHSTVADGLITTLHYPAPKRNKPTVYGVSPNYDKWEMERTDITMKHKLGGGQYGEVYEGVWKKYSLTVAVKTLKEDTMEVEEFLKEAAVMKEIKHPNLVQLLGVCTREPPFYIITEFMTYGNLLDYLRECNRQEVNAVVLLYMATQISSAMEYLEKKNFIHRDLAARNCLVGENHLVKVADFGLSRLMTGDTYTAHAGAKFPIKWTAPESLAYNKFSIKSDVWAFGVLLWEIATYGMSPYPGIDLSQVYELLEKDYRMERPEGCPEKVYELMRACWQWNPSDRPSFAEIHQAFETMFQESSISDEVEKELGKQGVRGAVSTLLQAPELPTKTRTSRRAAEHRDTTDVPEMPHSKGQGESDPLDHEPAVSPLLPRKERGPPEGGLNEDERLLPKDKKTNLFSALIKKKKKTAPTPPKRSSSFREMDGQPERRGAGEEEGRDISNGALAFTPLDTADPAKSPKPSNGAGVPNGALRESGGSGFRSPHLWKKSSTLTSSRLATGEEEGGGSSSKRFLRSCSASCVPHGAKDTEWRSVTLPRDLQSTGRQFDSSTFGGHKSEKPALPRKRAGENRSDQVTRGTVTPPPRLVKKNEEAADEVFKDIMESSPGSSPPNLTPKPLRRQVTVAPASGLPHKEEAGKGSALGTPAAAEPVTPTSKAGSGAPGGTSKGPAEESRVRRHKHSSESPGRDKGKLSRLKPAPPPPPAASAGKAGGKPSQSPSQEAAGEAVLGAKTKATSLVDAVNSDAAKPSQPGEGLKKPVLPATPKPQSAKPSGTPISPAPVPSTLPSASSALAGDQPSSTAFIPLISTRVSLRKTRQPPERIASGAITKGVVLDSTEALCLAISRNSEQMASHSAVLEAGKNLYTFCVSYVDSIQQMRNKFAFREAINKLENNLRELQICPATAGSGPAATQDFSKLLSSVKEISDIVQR
# Chain of Serine/threonine-protein kinase MRCK alpha (Q5VT25 whole entry): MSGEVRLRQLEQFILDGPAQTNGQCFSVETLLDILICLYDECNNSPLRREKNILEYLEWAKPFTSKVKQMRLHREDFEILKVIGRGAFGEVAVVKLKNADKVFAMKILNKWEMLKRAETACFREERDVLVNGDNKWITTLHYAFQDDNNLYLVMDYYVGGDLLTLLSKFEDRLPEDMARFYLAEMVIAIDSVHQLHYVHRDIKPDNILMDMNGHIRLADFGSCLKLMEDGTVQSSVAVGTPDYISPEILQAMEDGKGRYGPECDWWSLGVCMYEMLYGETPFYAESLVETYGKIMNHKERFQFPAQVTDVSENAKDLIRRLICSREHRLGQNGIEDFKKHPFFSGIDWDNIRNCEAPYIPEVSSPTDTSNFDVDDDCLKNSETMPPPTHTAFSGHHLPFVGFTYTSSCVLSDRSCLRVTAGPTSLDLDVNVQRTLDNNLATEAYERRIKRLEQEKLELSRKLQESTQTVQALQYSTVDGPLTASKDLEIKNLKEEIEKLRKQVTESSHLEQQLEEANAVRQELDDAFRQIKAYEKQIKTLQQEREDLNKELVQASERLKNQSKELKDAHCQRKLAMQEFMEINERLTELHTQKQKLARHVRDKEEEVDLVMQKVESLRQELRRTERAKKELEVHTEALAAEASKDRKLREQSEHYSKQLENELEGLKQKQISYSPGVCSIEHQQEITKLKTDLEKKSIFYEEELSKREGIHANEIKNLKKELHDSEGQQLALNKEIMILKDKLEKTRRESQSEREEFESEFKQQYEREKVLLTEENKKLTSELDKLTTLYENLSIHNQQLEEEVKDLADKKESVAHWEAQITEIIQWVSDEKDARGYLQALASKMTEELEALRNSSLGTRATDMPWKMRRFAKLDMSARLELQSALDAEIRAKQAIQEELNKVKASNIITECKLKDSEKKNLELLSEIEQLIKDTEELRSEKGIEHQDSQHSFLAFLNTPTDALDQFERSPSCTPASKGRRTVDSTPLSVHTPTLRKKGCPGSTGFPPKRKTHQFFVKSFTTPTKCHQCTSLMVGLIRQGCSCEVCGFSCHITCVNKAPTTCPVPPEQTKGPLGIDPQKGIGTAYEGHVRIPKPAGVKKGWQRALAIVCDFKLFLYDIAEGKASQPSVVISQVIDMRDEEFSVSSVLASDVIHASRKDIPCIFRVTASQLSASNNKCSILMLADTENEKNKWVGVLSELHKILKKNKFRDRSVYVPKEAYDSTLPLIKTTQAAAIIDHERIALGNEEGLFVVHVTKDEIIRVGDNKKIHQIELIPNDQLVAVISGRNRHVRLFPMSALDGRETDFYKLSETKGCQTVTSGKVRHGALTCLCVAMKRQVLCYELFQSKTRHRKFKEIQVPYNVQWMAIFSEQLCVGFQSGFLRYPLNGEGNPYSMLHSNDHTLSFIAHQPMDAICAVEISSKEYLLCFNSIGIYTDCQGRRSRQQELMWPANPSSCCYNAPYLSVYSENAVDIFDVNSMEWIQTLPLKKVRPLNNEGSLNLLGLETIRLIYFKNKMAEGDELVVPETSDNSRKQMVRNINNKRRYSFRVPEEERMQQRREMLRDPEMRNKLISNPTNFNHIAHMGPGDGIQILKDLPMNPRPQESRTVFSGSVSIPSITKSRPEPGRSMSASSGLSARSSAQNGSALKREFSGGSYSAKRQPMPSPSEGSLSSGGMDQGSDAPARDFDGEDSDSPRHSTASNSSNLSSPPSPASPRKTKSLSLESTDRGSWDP
# Chain of RAC-gamma serine/threonine-protein kinase (Q9Y243 whole entry): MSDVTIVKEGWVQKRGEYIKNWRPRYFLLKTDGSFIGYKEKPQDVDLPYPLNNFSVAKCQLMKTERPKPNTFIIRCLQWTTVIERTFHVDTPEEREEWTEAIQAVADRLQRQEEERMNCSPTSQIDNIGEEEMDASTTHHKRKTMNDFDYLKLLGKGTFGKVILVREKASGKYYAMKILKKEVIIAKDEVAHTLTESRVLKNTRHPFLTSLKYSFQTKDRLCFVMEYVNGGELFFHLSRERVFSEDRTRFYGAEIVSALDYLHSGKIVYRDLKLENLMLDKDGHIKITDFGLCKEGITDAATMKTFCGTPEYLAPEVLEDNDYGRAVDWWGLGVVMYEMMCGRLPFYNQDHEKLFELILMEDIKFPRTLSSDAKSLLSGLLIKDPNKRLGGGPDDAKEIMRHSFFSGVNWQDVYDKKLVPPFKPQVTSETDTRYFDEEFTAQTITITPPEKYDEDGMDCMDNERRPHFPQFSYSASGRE
# Chain of Cyclin-dependent kinase 5 (Q00535 whole entry): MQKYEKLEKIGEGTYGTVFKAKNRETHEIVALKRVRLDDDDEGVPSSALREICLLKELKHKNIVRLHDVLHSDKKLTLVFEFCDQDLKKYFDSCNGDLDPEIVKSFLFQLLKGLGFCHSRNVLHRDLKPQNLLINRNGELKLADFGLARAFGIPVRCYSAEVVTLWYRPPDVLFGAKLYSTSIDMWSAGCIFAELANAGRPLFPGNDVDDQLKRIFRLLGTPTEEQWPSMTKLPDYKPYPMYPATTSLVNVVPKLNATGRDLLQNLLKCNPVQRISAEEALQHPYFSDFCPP
# Chain of 5'-AMP-activated protein kinase catalytic subunit alpha-1 (Q13131 whole entry): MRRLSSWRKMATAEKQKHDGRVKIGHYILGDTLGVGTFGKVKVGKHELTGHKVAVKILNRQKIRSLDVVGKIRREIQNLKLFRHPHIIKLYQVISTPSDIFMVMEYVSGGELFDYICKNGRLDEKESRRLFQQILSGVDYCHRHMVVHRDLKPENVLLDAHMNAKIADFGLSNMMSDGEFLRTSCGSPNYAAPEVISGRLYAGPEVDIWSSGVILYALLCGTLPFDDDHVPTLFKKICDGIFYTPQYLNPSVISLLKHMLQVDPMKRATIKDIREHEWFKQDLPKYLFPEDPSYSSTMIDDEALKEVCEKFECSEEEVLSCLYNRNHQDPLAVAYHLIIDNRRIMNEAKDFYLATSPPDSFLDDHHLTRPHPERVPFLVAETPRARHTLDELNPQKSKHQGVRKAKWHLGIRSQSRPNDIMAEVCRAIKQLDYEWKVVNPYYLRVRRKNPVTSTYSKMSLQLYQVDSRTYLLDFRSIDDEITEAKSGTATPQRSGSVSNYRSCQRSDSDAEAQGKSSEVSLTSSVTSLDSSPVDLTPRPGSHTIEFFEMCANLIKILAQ
# Chain of Cyclin-dependent kinase 8 (P49336 whole entry): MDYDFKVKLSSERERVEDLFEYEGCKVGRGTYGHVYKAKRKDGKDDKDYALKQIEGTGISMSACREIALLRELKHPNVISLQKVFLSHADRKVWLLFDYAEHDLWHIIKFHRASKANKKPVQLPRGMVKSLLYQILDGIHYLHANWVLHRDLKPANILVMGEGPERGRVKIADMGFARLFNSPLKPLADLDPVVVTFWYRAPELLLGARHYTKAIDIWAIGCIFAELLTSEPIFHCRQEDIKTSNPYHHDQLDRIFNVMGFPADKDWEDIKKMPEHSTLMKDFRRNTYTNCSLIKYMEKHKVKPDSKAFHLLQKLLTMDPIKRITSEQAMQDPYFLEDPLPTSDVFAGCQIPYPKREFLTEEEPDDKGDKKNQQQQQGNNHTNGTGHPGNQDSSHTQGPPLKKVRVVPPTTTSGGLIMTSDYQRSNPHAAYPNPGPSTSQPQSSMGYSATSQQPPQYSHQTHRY
Compound,EC50 [1],EC50 [2],EC50 [3],IC50 (Nonstructural protein 1),IC50 [4],Ki [5],Ki [6],Ki [7],Ki [8],Ki [9],Ki [10],Ki [11],Ki [12],Ki [13],Ki [14],Ki [15],Ki [16],Ki [17],Ki [18]
CCOC(=O)C(C(=O)OCC)c1cc(Br)c2noc3c2c1C(=O)c1ccccc1-3,3.03 µM (active),3.06 µM (active),4.39 µM (active),35.5 µM (active),47.7 µM (active),,,,,,,,,,,,,,
COc1ccc(C(=O)Nc2n[nH]c3ccc(-c4cn(Cc5ccccc5)nn4)cc23)cc1OC,,,,,,1.26 µM (active),0.0631 µM (active),3.16 µM (active),0.0794 µM (active),> 1.58 µM (inactive),> 0.631 µM (inactive),0.0126 µM (active),1 µM (active),6.31 µM (active),> 3.98 µM (inactive),0.501 µM (active),> 10 µM (inactive),6.31 µM (active),0.794 µM (active)
